Experimental data from US8962637B2, “Bicyclic compounds and their uses as dual c-SRC/JAK inhibitors” (Debiopharm S.A., priority 2010, dated 2015).

Legend:
[1] = system: A431 cancer cell line; experiment: Inhibition of cell growth in A431; type: cell-based; conditions: Homo sapiens, A-431
[2] = system: Mda-Mb-231 cells; experiment: Cell viability assay (XTT assay), Mda-Mb-231; type: cell-based; conditions: Homo sapiens, 72 hrs
Method in brief: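 MDA-MB-231 cells seeded and dosed next day in triplicate, incubated 72 h. Medium replaced with XTT working solution for 2-5 h, absorbance read at 465 nm, and EC50 values derived from the readings.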

[3] = system: pStat3; experiment: In-Cell-Western blot assay for pStat3 (ICW) in A431 cells; type: cell-based; conditions: Homo sapiens, A-431, 2 hrs, read-out: pSTAT3 inhibition
Method in brief: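 Serum-starved (overnight) A431 cells treated with compound for 2 hrs, then fixed, permeabilized and probed with phospho-Stat3 antibody plus europium-labelled secondary. Europium signal normalized to Hoechst for cell number; IC50 calculated from normalized values.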

[4] = molecular target: c-Src (Homo sapiens (Human), UniProt P12931); experiment: TR-FRET c-Src kinase assay; type: biochemical; conditions: ATP 50 μM; for inhibition at 0.1 µM: read-out: c-SRC % inhibition at 100 nM, 100 nM; for inhibition at 1 µM: read-out: c-SRC % inhibition at 1 μM
Chain of c-Src (P12931 whole entry, looked up): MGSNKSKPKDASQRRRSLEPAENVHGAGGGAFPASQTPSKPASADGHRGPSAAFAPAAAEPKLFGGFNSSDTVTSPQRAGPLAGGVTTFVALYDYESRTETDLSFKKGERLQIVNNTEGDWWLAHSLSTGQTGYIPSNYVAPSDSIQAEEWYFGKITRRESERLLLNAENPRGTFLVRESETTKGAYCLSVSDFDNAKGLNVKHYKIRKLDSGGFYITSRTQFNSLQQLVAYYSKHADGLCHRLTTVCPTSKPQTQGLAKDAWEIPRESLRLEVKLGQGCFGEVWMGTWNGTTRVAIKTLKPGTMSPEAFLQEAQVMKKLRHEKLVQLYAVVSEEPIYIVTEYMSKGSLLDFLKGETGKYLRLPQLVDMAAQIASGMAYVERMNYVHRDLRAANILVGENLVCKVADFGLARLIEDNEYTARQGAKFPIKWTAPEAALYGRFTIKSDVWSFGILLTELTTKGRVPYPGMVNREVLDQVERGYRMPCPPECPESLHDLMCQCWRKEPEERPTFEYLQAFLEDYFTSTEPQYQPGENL
Protocol: (§1) Compounds were screened in the TR-FRET assay for JAK2 and c-Src kinase inhibition. Ultra light poly GT (Perkin Elmer) was used as the substrate for JAK2 and c-Src with the ATP concentration of 10 μM and 50 μM, respectively. […] The dose-response curve fitting was done using GraphPad Prism software.

[5] = molecular target: JAK2 (Homo sapiens (Human), UniProt O60674); experiment: TR-FRET JAK2 kinase assay; type: biochemical; conditions: ATP 10 μM; for inhibition at 0.1 µM: read-out: JAK2 % inhibition at 100 nM, 100 nM; for inhibition at 1 µM: read-out: JAK2 % inhibition at 1 μM
Chain of JAK2 (O60674 whole entry): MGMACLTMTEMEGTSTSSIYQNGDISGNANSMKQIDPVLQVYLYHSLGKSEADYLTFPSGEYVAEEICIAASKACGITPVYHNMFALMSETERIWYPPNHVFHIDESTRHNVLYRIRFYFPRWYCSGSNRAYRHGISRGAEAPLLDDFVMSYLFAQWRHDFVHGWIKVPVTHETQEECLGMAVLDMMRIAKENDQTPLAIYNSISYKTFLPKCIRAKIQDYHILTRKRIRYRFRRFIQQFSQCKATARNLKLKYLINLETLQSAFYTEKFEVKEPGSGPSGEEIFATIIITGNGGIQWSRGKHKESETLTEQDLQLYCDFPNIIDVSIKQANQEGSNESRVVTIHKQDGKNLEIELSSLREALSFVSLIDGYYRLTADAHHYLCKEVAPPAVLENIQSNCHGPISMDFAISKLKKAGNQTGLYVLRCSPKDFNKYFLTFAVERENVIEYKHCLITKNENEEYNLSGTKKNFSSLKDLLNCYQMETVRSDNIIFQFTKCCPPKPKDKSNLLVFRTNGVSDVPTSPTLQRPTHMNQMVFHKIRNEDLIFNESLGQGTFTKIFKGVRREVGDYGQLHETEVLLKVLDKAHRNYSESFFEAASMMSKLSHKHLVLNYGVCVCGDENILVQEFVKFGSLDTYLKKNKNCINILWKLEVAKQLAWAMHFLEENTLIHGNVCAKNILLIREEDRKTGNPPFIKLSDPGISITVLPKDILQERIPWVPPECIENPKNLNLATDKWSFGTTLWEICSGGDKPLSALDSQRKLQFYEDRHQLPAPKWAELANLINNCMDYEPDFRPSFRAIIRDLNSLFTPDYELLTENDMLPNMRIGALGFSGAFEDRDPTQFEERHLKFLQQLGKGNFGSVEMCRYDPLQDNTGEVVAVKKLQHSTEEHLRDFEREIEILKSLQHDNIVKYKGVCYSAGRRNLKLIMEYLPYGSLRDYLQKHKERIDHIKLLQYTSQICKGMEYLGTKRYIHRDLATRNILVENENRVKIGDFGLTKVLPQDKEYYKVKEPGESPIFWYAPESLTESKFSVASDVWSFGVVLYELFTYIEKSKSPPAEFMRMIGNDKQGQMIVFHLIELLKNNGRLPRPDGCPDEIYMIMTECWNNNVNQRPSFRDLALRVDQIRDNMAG
Protocol: as §1

[6] = system: A549 cells; experiment: Cell viability assay (XTT assay), A549; type: cell-based; conditions: Homo sapiens, 72 hrs
Protocol: Next day compounds were added to cells and incubated for 72 hrs. Compound treatment was done in triplicates. After 72 hrs cell culture media was aspirated from the wells and XTT working solution was added and plates were incubated for 2-5 hrs. […] EC50 values were calculated using Graphpad Prism. Tumor cell lines used in the examples of the present invention were procured from ATCC. Description of the cell lines is included in the following table: […]

[7] = Volume distribution; conditions: in vivo
Excerpt: Table 8 provides some volume distribution values of the compounds of the present invention.

[8] = system: pStat3; experiment: Quantification of pStat3 in tumors by flow cytometry; type: in vivo, mice; conditions: A549 Xenograft model
Protocol: (§2) Measured pStat3 using FACS caliber machine (BD). Unstained PBMCs was used for cytometry settings. […] Histograms (cell number V/s FL1-H) were plotted. Percentage of cells that are phosphorylated by IL6 stimulation (M2 population), and inhibition of phosphorylation by inhibitor (decrease in M2 population) are calculated on histogram by marking peaks, M1 and M2.
Separate the tumour & 200 mg of tumour was crashed (45 mg per ml) by using IKA 10 at Speed #4 for 10 seconds. Sieve the tumour extract through 100 u, centrifuge at 900 g for 10 min. Re-suspend cells briefly in 0.5-1 ml PBS. Add formaldehyde to a final concentration of 2-4% formaldehyde. Fix for 10 minutes at 37° C. Chill tubes on ice for 1 minute.
Permeabilize cells by adding ice-cold 100% methanol slowly to pre-chilled cells, while gently vortexing, to a final concentration of 90% methanol. Alternatively, to remove fix prior to permeabilization, pellet cells by centrifugation and re-suspend in 90% methanol. Incubate 30 minutes on ice. Proceed with staining or store cells at −20° C. in 90% methanol. Aliquot 0.5-1×10^6 cells into each assay tube (by volume). Add 2-3 ml Incubation Buffer to each tube and rinse by centrifugation. Repeat. Re-suspend cells in 100 μl Incubation Buffer per assay tube. Analyze by flow cytometry like PBMCs.

[9] = system: pStat3; experiment: Quantification of pStat3 in PBMCs by flow cytometry; type: in vivo, mice; conditions: A549 Xenograft model
Protocol: Phosphorylation of Stat3 was stimulated by addition of hIL6 (10 ug/mL) for 30 min at 37° C. Blood was fixed with formaldehyde (final 2% v/v) for 10 min at 37° C.
Buffy coat (PBMCs) was separated by aspirating translucent layer using pipetteman and washed twice with PBS-1×
Pre chilled PBMC's were permeabilized by adding ice cold Methanol, while vortexing gently (final volume 90% MeOH v/v) and incubated for 30 min on ice.
Permeabilized PBMCs were washed with PBS once. PBMCs re-suspended to 2×10^6 cells in 200 μL of incubation buffer for 10 min at room temperature (RT). Primary Ab was added (1:100 dilution) and incubated 45 min at RT. Washed as before (twice) and re-suspended in fluorochrome conjugated secondary Ab (1:500 dilution) and incubated at RT in dark for 30 min. Washed and re-suspended in […] PBS.
as §2

[10] = system: A549 tumor cells; experiment: A549 xenograft model; type: in vivo; conditions: A549 Xenograft model
Protocol: Sub-cutaneous (SC) injection of 5×10^6 A549 tumor cells on the left flank of 48 female athymic nude mice. Randomization of mice 14 days after tumor cell injection into 6 groups of 8 mice each with a mean tumor volume of 134±5 mm3.
Formulation: 20% HPC, 2% ethanol solution in PBS for the compounds No. 45, 117 and 179.
• Normal saline for Erlotinib® Dosing route: Oral for the compounds No. 45, 117 and 179, and Erlotinib® Dose Volume: 10 mL/Kg body weight Dosing schedule: Once daily for 14 consecutive days (Q1Dx14) Dosage: • Group1. Vehicle control • Group2. Erlotinib®-100 MPK • Group3. Compound No. 45—10 MPK • Group4. Compound No. 45—30 MPK • Group5. Compound No. 45—100 MPK • Group6. Compound No. 117—30 MPK • Group7. Compound No. 117—100 MPK • Group8. Compound No. 179—10 MPK • Group9. […] Plasma collected for drug concentration estimation and whole blood was collected to isolate PBMCs (peripheral blood monocytes) to determine pStat3 inhibition by flow cytometry as PD readout. Tumors were snap frozen in liquid nitrogen and stored at −80° C. to estimate pStat3 by flow cytometry as PD readout EXPT. 2
SC injection of 5×10^6 A549 tumor cells on the left flank of 24 female athymic nude mice. Randomization of mice 14 days after tumor cell injection into 3 groups of 8 mice each with a mean tumor volume of 75±7 mm3.
Formulation: 20% HPC, 2% ethanol solution in PBS for the compound No. 45
• Normal saline for Erlotinib® Dosing route: Oral for compound No. 45 and Erlotinib® Dose Volume: 10 mL/Kg body weight Dosing schedule: Once daily for 14 consecutive days (Q1Dx14) Dosage: • Group1. Vehicle control • Group2. Compound No. 45—150 MPK • Group3. […] Plasma collected for drug concentration estimation and whole blood was collected to isolate PBMCs to determine pStat3 inhibition by flow cytometry as PD readout. Tumors were snap frozen in liquid nitrogen and stored at −80° C. to estimate pStat3 by flow cytometry as PD readout Results: […]

SMILES | EC50 [1] | EC50 [2] | IC50 [3] | EC50 [6] | inhibition at 0.1 µM [4] | inhibition at 1 µM [4] | inhibition at 0.1 µM [5] | inhibition at 1 µM [5] | also measured
Cc1ccc(NC(=O)c2cccc(C(F)(F)F)c2)cc1N1CCc2nc(Nc3ccc(OCCN4CCCC4)cc3)ncc2C1=O [Compound 7, N-(4-Methyl-3-{5-oxo-2-[4-(2-pyrrolidin-1-yl-ethoxy)-phenylamino]-7,8-dihydro-5H-pyrido[4,3-d]pyrimidin-6-yl}-phenyl)-3-trifluoromethyl-benzamide] | 1.45 µM | 3.6 µM | 0.45 µM | 3.4 µM | – | – | – | – | IC50 [4]: 0.016 µM; IC50 [5]: 0.083 µM
Cc1ccc(NC(=O)c2cccc(C(C)(C)C)c2)cc1N1CCc2nc(Nc3ccc(N4CCN(C)CC4)cc3)ncc2C1=O [Compound 86] | 0.57 µM | 0.53 µM | 0.58 µM | 0.078 µM | – | – | – | – | –
Cc1ccc(NC(=O)c2cccc(C(F)(F)F)c2)cc1N1CCc2nc(Nc3ccc(OCCCN4CCN(C)CC4)cc3)ncc2C1=O [Compound 180, N-[4-Methyl-3-(2-{4-[3-(4-methyl-piperazin-1-yl)-propoxy]-phenylamino}-5-oxo-7,8-dihydro-5H-pyrido[4,3-d]pyrimidin-6-yl)-phenyl]-3-trifluoromethyl-benzamide] | 1.07 µM | 1.62 µM | 0.14 µM | 1.48 µM | 66% | 87% | 67% | 91% | –
O=C(Nc1ccc(Cl)c(N2CCc3nc(Nc4ccc(OCCN5CCCC5)cc4)ncc3C2=O)c1)c1cccc(C(F)(F)F)c1 [Compound 181, N-(4-Chloro-3-{5-oxo-2-[4-(2-pyrrolidin-1-yl-ethoxy)-phenylamino]-7,8-dihydro-5H-pyrido[4,3-d]pyrimidin-6-yl}-phenyl)-3-trifluoromethyl-benzamide] | 1.3 µM | 3.34 µM | – | 2.54 µM | 53% | 77% | 85% | 93% | –
Cc1ccc(NC(=O)c2cccc(C(F)(F)F)c2)cc1N1CCc2nc(Nc3ccc(OCCCN4CCOCC4)cc3)ncc2C1=O [Compound 182, N-(4-Methyl-3-{2-[4-(3-morpholin-4-yl-propoxy)-phenylamino]-5-oxo-7,8-dihydro-5H-pyrido[4,3-d]pyrimidin-6-yl}-phenyl)-3-trifluoromethyl-benzamide] | 5.07 µM | 2.76 µM | – | 1.08 µM | 51% | 80% | 55% | 85% | –
O=C(COc1ccc(Nc2ncc3c(n2)CCN(c2cc(NC(=O)c4cccc(C(F)(F)F)c4)ccc2Cl)C3=O)cc1)NC1CC1 [Compound 185, N-(4-Chloro-3-[2-(4-(cyclopropylcarbamoylmethoxy)phenylamino)-5-oxo-7,8-dihydro-5H-pyrido[4,3-d]pyrimidin-6-yl]-phenyl}-3-trifluoromethyl-benzamide] | – | – | – | – | – | – | – | – | Vd [7]: 0.583 L/kg
C#Cc1cccc(Nc2ncnc3cc(OCCOC)c(OCCOC)cc23)c1 [Erlotinib, reference compound] | – | – | – | – | – | – | – | – | Tumors % pStat3 inhibition ([8]; 100 MPK): 28.14%; PBMCs % pStat3 inhibition ([9]; 100 MPK): 44.43%; % TGI (Tumor Growth Inhibition) ([10]; 100 MPK): 59.55%
CCC1=C[C@@H]2CN(C1)Cc1c([nH]c3ccccc13)[C@@](C(=O)OC)(c1cc3c(cc1OC)N(C)[C@H]1[C@@](O)(C(=O)OC)[C@H](OC(C)=O)[C@]4(CC)C=CCN5CC[C@]31[C@@H]54)C2 [Vinorelbine, reference compound] | – | – | – | – | – | – | – | – | Tumors % pStat3 inhibition ([8]; 8 MPK): 25.2%; PBMCs % pStat3 inhibition ([9]; 8 MPK): 28.8%; % TGI (Tumor Growth Inhibition) ([10]; 8 MPK): 51.89%

More lines, main results first:

EC50 [1] | EC50 [2] | IC50 [3] | EC50 [6] | inhibition at 0.1 µM [4] | inhibition at 1 µM [4] | inhibition at 0.1 µM [5] | inhibition at 1 µM [5] | SMILES | also measured
– | 0.88 µM | – | – | 74% | 90% | – | – | Cc1ccc(NC(=O)CCC(F)(F)F)cc1N1CCc2nc(Nc3ccc(N4CCN(C)CC4)cc3)ncc2C1 [Compound 131, 4,4,4-Trifluoro-N-(4-methyl-3-{2-[4-(4-methyl-piperazin-1-yl)-phenylamino]-7,8-dihydro-5H-pyrido[4,3-d]pyrimidin-6-yl}-phenyl)-butyramide] | Vd [7]: 7.14 L/kg
0.67 µM | 0.074 µM | 0.67 µM | 0.426 µM | – | – | – | – | Cc1ccc(NC(=O)c2cccc(C(F)(F)F)c2)cc1N1CCc2nc(Nc3cccc(CN4CCN(C)CC4)c3)ncc2C1 [Compound 137, N-(4-Methyl-3-{2-[3-(4-methyl-piperazin-1-ylmethyl)-phenylamino]-7,8-dihydro-5H-pyrido[4,3-d]pyrimidin-6-yl]-phenyl)-3-trifluoromethyl-benzamide] | IC50 [4]: 0.007 µM
– | 0.72 µM | – | – | 67% | 90% | 88% | 93% | Cc1ccc(NC(=O)CCC(F)(F)F)cc1N1CCc2nc(Nc3ccc(OCCN4CCCC4)cc3)ncc2C1 [Compound 147, 4,4,4-Trifluoro-N-(4-methyl-3-{2-[4-(2-pyrrolidin-1-yl-ethoxy)-phenylamino]-7,8-dihydro-5H-pyrido[4,3-d]pyrimidin-6-yl}-phenyl)-butyramide] | Vd [7]: 20.6 L/kg; IC50 [5]: 0.021 µM
